Experimental findings from patent US20220017516A1, “LOX INHIBITORS” (THE INSTITUTE OF CANCER RESEARCH: ROYAL CANCER HOSPITAL, priority 2018, published 2022) are described below.

Test [1] deals with T1, LOX (Mus musculus, UniProt P28301).
T1 construct: Full length LOX cDNA was then PCR cloned into pEGFP-N1 (Clonetech), or biosensor vector proGFP2—N1; expressed in transfected cells; host or cells: MDCK cells grown as cysts on Matrigel
T1 sequence (P28301 163-411): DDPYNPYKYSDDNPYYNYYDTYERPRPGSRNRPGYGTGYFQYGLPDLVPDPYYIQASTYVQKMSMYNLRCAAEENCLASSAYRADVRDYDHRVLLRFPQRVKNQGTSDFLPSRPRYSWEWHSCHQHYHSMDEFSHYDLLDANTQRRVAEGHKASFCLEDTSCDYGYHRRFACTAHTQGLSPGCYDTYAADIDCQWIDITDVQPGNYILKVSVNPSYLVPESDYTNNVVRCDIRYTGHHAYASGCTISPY
Put plainly: LOX activity in cysts assay (roGFP2 LOX biosensor in MDCK cysts). Format: cell-based. To be noted: LOX, read-out: Cyst LOX (% inhibition) @ 2.5 uM. As for the experimental part:
All cell lines used in this study were purchased from American Type Culture Collection (ATCC). Mycoplasma contamination was routinely monitored by PCR. Cells used were not found to be Mycoplasma positive. MDCK cell lines were cultured in Dulbecco's Modified Eagle Medium (DMEM) supplemented with 10% fetal bovine serum (FBS) and 1% Penicillin Streptomycin solution (Pen Strep). For GFP constructs transfection in MDCK cells, lipofectamine 3000 was used according to manufactures protocols. Cells were either selected with G418 (Life Technologies) at 5 mg/ml. All cell culture reagents were purchased from Life Technologies.
To produce MDCK cysts, cells were cultured on Matrigel (Corning) with 2% Matrigel supplemented in DMEM with 10% FBS. Cysts were allowed to form for 10 days before subsequent studies.
Mouse LOX cDNA was purchased from OriGene. Full length LOX cDNA was then PCR cloned into pEGFP-N1 (Clonetech), or biosensor vector proGFP2—N1 (Hanson, 2004) using the following primers, […] (forward primer) and […] (reverse primer). For the insertion into pEGFP-N1 or proGFP2—N1, Nhel and Xhol restriction sites were added to forward and reverse primers accordingly. Mutant LOX constructs were made using QuickChange II site-directed mutagenesis kit (Agilent Technologies) following manufacture's protocol using LOX-GFP as template. To generate, roGFP2 versions of LOX mutant constructs, LOX mutant cDNA was transferred from pEGFP-N1 to proGFP2—N1 using Nhel and Xhol.
All photomicrographs were taken with a Leica TCS SP8 X confocal system. For LOX biosensor imaging, live MDCK cysts were used. The oxidised biosensor was excited using a 405 nm laser, while the reduced biosensor was excited with a 488 nm laser. Emission of the biosensor was recorded at 500 nm-530 nm range using sequential scans. Ratio images were generated following a published protocol {Kardash, 2011 #376}. Note, while the published protocol generates YFP/CFP ratio images, we used it to generate Oxidised/Reduced (roGFP2 ratio) ratio images. The roGFP2 ratio at the basal surface of MDCK cysts was used to indicate LOX inhibition. LOX inhibitors were added 30 min prior to imaging.
For clarity, readout for DMSO treated cysts represents 0% inhibition (no inhibition) and readout for BAPN at 1 mM is used as 100% inhibition (full inhibition).

Test [2] addresses T2, LOX (Sus scrofa, UniProt P45845).
T2 construct: LOX was extracted from pig skin by previously described methods; from tissue; host or cells: pig skin
T2 sequence (P45845 1-249): T1 sequence (P28301 163-411) with D20X, T21X, Y22X, N31Y, S80T, N142S, A188N, Q202K, T224S, D231E
Nature of the test: LOX isoform activity assay (ROS Glo), LOX. Conditions: 1 h incubation with enzyme. Format: biochemical, pig. How it is done: (§1) LOX was extracted from pig skin by previously described methods (Shackleton and Hulmes, 1990). LOXL2 and LOXL3 were obtained from R&D Systems/Bio-techne. The Promega ROS Glo assay kit (G8821) was used to assess enzyme activity. Overall, test compound was added to either 384 well assay plates (Greiner) using a Labcyte Echo™ Acoustic Handler or to 96 well plates for a final assay concentration of 100, 30, 10, 3, 1, 0.3, 0.1, 0.03, 0.01 and 0.003 μM final assay concentration. Enzymes were diluted according to specific pre-determined activity in assay buffer (100 mM CHES, pH 9, 0.05% (w/v) pluronic F-127, 0.5% (w/v) BSA, 1 mM MgCl2, 1 M urea, 100 mM NaCl) and added to the plate. For LOXL2, the mixture was incubated for 20 min, 1 h or 20 h; for LOX and LOXL3, incubation time was 1 h. Cadaverine and H2O2 substrate were then added to each well (final assay concentration 19.56 mM and 25 μM respectively) and the plates were incubated for 1.5 h (for LOX) or 1 h (for LOXL2 and LOXL3) at room temperature. Finally, luciferin detection reagent was added and plates were incubated for 20 min at room temperature, protected from light. Luminescence was measured using a BMG LABTECH PHERAstar FS reader and resulting IC50 values were calculated using GraphPad Prism software.

The target of a further test is T3, LOXL2 (Homo sapiens, UniProt Q9Y4K0).
T3 construct: purchased R&D Systems/Bio-techne
T3 sequence (Q9Y4K0 26-774): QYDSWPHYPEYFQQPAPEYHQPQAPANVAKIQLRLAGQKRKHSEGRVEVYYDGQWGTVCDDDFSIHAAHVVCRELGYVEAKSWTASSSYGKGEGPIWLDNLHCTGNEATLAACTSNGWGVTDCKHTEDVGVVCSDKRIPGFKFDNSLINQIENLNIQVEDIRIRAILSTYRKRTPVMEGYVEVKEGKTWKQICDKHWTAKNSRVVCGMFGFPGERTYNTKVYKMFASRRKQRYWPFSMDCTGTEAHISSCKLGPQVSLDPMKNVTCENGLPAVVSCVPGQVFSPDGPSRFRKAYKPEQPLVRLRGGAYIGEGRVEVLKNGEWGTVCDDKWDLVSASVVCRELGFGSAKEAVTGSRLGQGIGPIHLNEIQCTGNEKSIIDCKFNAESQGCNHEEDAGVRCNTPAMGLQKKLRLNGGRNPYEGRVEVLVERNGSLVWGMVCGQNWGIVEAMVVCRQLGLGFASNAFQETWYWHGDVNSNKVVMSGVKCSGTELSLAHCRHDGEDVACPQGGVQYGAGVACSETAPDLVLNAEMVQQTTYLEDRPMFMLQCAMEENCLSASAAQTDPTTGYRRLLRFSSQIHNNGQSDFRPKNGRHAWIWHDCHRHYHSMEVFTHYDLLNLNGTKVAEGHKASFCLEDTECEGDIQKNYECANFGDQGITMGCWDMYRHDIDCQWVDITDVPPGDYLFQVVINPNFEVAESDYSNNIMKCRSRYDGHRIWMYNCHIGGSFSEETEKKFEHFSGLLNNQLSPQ
Nature of the test: LOX isoform activity assay (ROS Glo), LOXL2. Format: biochemical. As for the experimental part: as §1
In another setting, LOXL2 enzyme was diluted according to specific pre-determined activity in assay buffer (100 mM CHES, pH 9, 0.05% (w/v) pluronic F-127, 0.5% (w/v) BSA, 1 mM MgCl2, 1 M urea, 100 mM NaCl). Overall, 0.5 μl test compound was added to 40 μl assay buffer+LOXL2 at 100, 30, 10, 3, 1, 0.3, 0.1, 0.03, 0.01 and 0.003 μM (final concentration) in a 96-well white polystyrene, flat bottom plates (Fisher) and incubated for the indicated time at room temperature. 10 μl of assay buffer containing 97.8 mM cadaverine and 125 μM H2O2 substrate (final assay concentration 19.56 mM and 25 μM respectively) were added to each well and plates were incubated for 1 h at room temperature. Finally, 50 μl per well luciferin detection reagent was added and plates were incubated for 20 min at room temperature, protected from light. Luminescence was measured with an integration time of 500 ms per well using a SpectaMax M5 plate reader and resulting IC50 values were calculated using GraphPad Prism software.

Another test has as its target T4, LOXL3 (Homo sapiens, UniProt P58215).
T4 construct: purchased R&D Systems/Bio-techne
T4 sequence (P58215 26-753): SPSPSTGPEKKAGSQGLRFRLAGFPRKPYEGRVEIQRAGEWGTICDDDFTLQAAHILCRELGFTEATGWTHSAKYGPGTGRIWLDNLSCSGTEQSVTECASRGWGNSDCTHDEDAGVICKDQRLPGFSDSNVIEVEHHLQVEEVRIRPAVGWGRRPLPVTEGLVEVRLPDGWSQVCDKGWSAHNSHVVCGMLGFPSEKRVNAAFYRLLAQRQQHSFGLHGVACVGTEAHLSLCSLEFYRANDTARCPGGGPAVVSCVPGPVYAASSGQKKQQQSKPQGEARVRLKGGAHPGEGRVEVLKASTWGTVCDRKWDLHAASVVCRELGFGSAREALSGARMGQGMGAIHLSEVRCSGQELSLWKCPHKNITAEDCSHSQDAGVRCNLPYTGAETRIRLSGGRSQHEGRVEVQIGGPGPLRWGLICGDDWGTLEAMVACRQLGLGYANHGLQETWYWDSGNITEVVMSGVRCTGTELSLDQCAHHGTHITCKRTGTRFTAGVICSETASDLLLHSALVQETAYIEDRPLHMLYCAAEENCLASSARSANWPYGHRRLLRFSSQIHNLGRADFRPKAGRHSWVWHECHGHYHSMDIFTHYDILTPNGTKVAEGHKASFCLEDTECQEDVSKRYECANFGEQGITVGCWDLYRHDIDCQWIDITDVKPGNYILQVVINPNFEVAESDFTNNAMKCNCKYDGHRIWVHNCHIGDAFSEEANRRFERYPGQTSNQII
Nature of the test: LOX isoform activity assay (ROS Glo), LOXL3. Conditions: 1 h incubation with enzyme. Type of test: biochemical. How it is done:
as §1

Where [3] appears, read: 1 hr incubation with enzyme; read-out: LOXL2 IC50 b) 1 hr.

Positions count from the first letter of the chain named. Like-named read-outs stand apart in the source and are kept apart here.

With `CCOc1ccc(N2C[C@H]3CN(C(=O)C(F)S(=O)(=O)CCN)C[C@@H]2C(C)(C)C3)cc1` (stereo partly drawn) [Example 15, 2-((2-aminoethyl)sulfonyl)-1-((1 S,5S)-6-(4-ethoxyphenyl)-9,9-dimethyl-3,6-diazabicyclo[3.2.2]nonan-3-yl)-2-fluoroethan-1-one], at LOX [1], the inhibition (as a rule, the drop in the measured response relative to a control, in per cent) at 2.5 µM amounted to 78%. Further, the IC50 – broadly, the concentration that inhibits the measured activity by half – at LOX [2] stood at 2200 nM; at LOXL2 (20 hr incubation with enzyme; read-out: LOXL2 IC50 c) 20 hr), 120 nM.

As to `NCCS(=O)(=O)C(F)C(=O)N1C[C@@H]2CN(c3ccc(Br)cc3)C[C@@H]2C1` (stereo partly drawn) [Example 19, 2-((2-Aminoethyl)-sulfonyl)-2-fluoro-1-(cis-5-(4-bromo-phenyl)hexahydro-pyrrolo[3,4-c]pyrrol-2(1H)-yl)ethan-1-one], the IC50 against LOX [2] is 660 nM; at LOXL2 (setting [3]), 150 nM; against LOXL3, 220 nM.

With `NCCS(=O)(=O)C(F)C(=O)N1C[C@@H]2CN(c3c(F)c(F)c(F)c(F)c3F)C[C@@H]2C1` (stereo partly drawn) [Example 20, 2-((2-aminoethyl)-sulfonyl)-2-fluoro-1-(cis-5-(perfluoro-phenyl)hexahydro-pyrrolo[3,4-c]pyrrol-2(1H)-yl)ethan-1-one], the 50% inhibitory concentration (IC50) against LOX [2] was 2400 nM; on LOXL2 (setting [3]) it was 240 nM; against LOXL3, 340 nM.

As to `NCCS(=O)(=O)C(F)C(=O)N1C[C@@H]2CN(c3ccc(F)cc3)C[C@@H]2C1` (mixture of isomers) [Example 18], the results for the IC50 against LOX [2], on LOXL2 (setting [3]) and against LOXL3 were 2300 nM, 230 nM and 440 nM, respectively.
